Test results taken from publication PMC5045831 (Drugs in R&D, 2016).
Where two headings read alike, the source gives them in different places.

What was measured:
[1] = cited from earlier work
[2] = assay type: in vivo, human
Evaluation of safety = assay type: in vivo, human; settings: single oral 50 mg with water, lemon or Seville orange juice; nine subjects
[3] = cited from earlier work; remark: listed apart in the source
[4] = cited from earlier work; remark: listed apart in the source
[5] = Seville orange juice, healthy volunteers
[6] = Seville orange juice compared with water

Compound: COc1ccc2c(c1)[C@]13CCCC[C@@H]1[C@H](C2)N(C)CC3 [dextromethorphan]
- change in bioavailability ([1]; with Seville orange juice, effects lasted 3 days): increased significantly

Compound: COc1cc2c(c(OC)c1OC)-c1ccc(OC)c(=O)cc1[C@@H](NC(C)=O)CC2 [colchicine]
- decrease in AUC [1, 5]: 20%
- decrease in Cmax [1, 5]: 24%
- delay in Tmax [1, 5]: 1 h

Compound: CCCc1nn(C)c2c(=O)[nH]c(-c3cc(S(=O)(=O)N4CCN(C)CC4)ccc3OCC)nc12 [sildenafil]
- change in Tmax [2, 6]: non-significant changes
- increase in AUC0–∞ [2, 6]: 44%
- increase in Cmax [2, 6]: 8%
- reduction of apparent oral clearance (CL/F) [2, 6]: 30%
- Tmax ([2]; male, human, plasma, po, 50 mg): ~1 h
- adverse effects reported (Evaluation of safety): without reporting any adverse effect
- change in bioavailability ([3]; co-administration of ciprofloxacin and clarithromycin): significantly increases
- increase in bioavailability and AUC ([3]; with grapefruit juice, Cmax unaffected): 23%

Compound: CCOC(=O)C1=C(C)NC(C)=C(C(=O)OC)C1c1cccc(Cl)c1Cl (centres unmarked) [felopdipine]
- increase in AUC ([4]; with Seville orange): 93%
- increase in AUC ([4]; with grapefruit): 76%
